Reference: patent publication US6737383B1, “Herbicidal oxadiazolidines” (priority 1999, dated 2004)

Key:
blackgrass = assay: Test B pre/postemergence blackgrass; type: in vivo, Alopecurus myosuroides
Outline: (§1)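 Test chemicals in a non-phytotoxic solvent mixture with surfactant were sprayed preemergence onto planted seeds and postemergence onto plants 2 to 18 cm tall (1- to 4-leaf stage). After twelve to sixteen days in a greenhouse, injury was visually rated against untreated controls from 0 (no effect) to 10 (complete control).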

pigweed = assay: Test B pre/postemergence pigweed; type: in vivo, Amaranthus retroflexus
Outline: as §1

morningglory = assay: Test B pre/postemergence morningglory; type: in vivo, Ipomoea hederacea
Outline: as §1

surinam grass = assay: Test B pre/postemergence surinam grass; type: in vivo, Brachiaria decumbens
Outline: as §1

smallflower flatsedge = assay: Test B flood test smallflower flatsedge; type: in vivo, Cyperus difformis; settings: for S. Flatsedge plant response rating: Postemergence section (flood test species)
Outline: (§2)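 Each value is a visual injury score relative to controls, with 10 meaning complete control and 0 no effect. Evaluation took place twelve to sixteen days after the 2-leaf-stage plants were treated and kept in the greenhouse.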

sugar beet = assay: Test B pre/postemergence sugar beet; type: in vivo, Beta vulgaris
Outline: as §1

bamyardgrass = assay: Test B flood test barnyardgrass; type: in vivo, Echinochloa crus-galli
Outline: as §2

soybean = assay: Test B pre/postemergence soybean; type: in vivo, Glycine max
Outline: as §1

corn = assay: Test B pre/postemergence corn; type: in vivo, Zea mays
Outline: as §1

giant foxtail = assay: Test B pre/postemergence giant foxtail; type: in vivo, Setaria faberii
Outline: as §1

velvetleaf = assay: Test B pre/postemergence velvetleaf; type: in vivo, Abutilon theophrasti
Outline: as §1

duck salad = assay: Test B flood test duck salad; type: in vivo, Heteranthera limosa
Outline: as §2

rice = assay: Test B flood test rice; type: in vivo, Oryza sativa; settings: for Rice plant response rating: Postemergence section (flood test species)
Outline: as §2

purple nutsedge = assay: Test B pre/postemergence purple nutsedge; type: in vivo, Cyperus rotundus
Outline: as §1

rape = assay: Test B pre/postemergence rape; type: in vivo, Brassica napus
Outline: as §1

[1] = Postemergence, Rate 250 g/ha, scale 0 to 10, 0 is no effect, 10 is complete control
[2] = Postemergence, Rate 500 g/ha, scale of 0 to 10 where 0 is no effect and 10 is complete control
[3] = Preemergence, Rate 62 g/ha, scale 0 to 10 (0 no effect, 10 complete control)
[4] = Preemergence, Rate 125 g/ha, scale of 0 to 10 where 0 is no effect and 10 is complete control
[5] = Preemergence, Rate 250 g/ha, scale of 0 to 10 where 0 is no effect and 10 is complete control
[6] = Preemergence, Rate 500 g/ha, scale 0 to 10, 0 is no effect, 10 is complete control
[7] = Rate 62 g/ha, Postemergence, scale of 0 to 10 where 0 is no effect and 10 is complete control
[8] = Rate 125 g/ha, Postemergence, scale 0 to 10, 0 is no effect, 10 is complete control
[9] = Preemergence, Rate 250 g/ha, scale 0 to 10, 0 is no effect, 10 is complete control
[10] = Rate 500 g/ha, scale of 0 to 10 where 0 is no effect and 10 is complete control
[11] = Rate 125 g/ha, scale 0 to 10, 0 is no effect, 10 is complete control
[12] = flood test species, listed under Postemergence, Rate 250 g/ha, scale 0 to 10, 0 is no effect, 10 is complete control
[13] = Postemergence section (flood test species), Rate 500 g/ha, scale of 0 to 10 where 0 is no effect and 10 is complete control
[14] = Rate 62 g/ha, Postemergence (flood test species), scale of 0 to 10 where 0 is no effect and 10 is complete control
[15] = Rate 125 g/ha, Postemergence section (flood test species), scale 0 to 10, 0 is no effect, 10 is complete control

CC(C)N(C(=O)n1oc(=O)n(CCl)c1=O)c1ccc(Cl)cc1 [Compound 422]
Plant response rating, Blackgrass (blackgrass; [1]): 0
Blackgrass plant response rating (blackgrass; [2]): 0
Plant response rating, Blackgrass (blackgrass; [3]): 0
Plant response rating, Blackgrass (blackgrass; [4]): 0
Blackgrass plant response rating (blackgrass; [5]): 0
Blackgrass plant response rating (blackgrass; [6]): 0
Blackgrass plant response rating (blackgrass; [7]): 0
Blackgrass plant response rating (blackgrass; [8]): 0
Plant response rating, Redroot pigweed (pigweed; [1]): 0
Redroot pigweed plant response rating (pigweed; [2]): 0
Plant response rating, Redroot pigweed (pigweed; [3]): 0
Plant response rating, Redroot pigweed (pigweed; [4]): 0
Redroot pigweed plant response rating (pigweed; [9]): 0
Redroot pigweed plant response rating (pigweed; [6]): 0
Redroot pigweed plant response rating (pigweed; [8]): 0
Plant response rating, Morningglory (morningglory; [1]): 0
Morningglory plant response rating (morningglory; [2]): 0
Plant response rating, Morningglory (morningglory; [3]): 0
Plant response rating, Morningglory (morningglory; [4]): 0
Morningglory plant response rating (morningglory; [9]): 0
Morningglory plant response rating (morningglory; [6]): 0
Morningglory plant response rating (morningglory; [8]): 0
Plant response rating, B. signalgrass (surinam grass; [1]): 0
B. signalgrass plant response rating (surinam grass; [2]): 0
Plant response rating, B. signalgrass (surinam grass; [3]): 0
Plant response rating, B. signalgrass (surinam grass; [4]): 0
B. signalgrass plant response rating (surinam grass; [5]): 0
B. signalgrass plant response rating (surinam grass; Preemergence, Rate 500 g/ha, scale of 0 to 10 where 0 is no effect and 10 is complete control): 0
B. signalgrass plant response rating (surinam grass; [7]): 0
B. signalgrass plant response rating (surinam grass; [8]): 0
S. Flatsedge plant response rating (smallflower flatsedge; [10]): 0
S. Flatsedge plant response rating (smallflower flatsedge; [11]): 0
Plant response rating, S. Flatsedge (smallflower flatsedge; [12]): 0
Plant response rating, Sugarbeets (sugar beet; [1]): 0
Sugarbeets plant response rating (sugar beet; [2]): 0
Plant response rating, Sugarbeets (sugar beet; [3]): 0
Plant response rating, Sugarbeets (sugar beet; [4]): 0
Sugarbeets plant response rating (sugar beet; [9]): 0
Sugarbeets plant response rating (sugar beet; [6]): 0
Sugarbeets plant response rating (sugar beet; [8]): 0
Barnyardgrass plant response rating (bamyardgrass; [13]): 0
Barnyardgrass plant response rating (bamyardgrass; [14]): 0
Barnyardgrass plant response rating (bamyardgrass; [15]): 0
Plant response rating, Barnyardgrass (bamyardgrass; [12]): 0
Plant response rating, Soybean (soybean; [1]): 3
Soybean plant response rating (soybean; [2]): 4
Plant response rating, Soybean (soybean; [3]): 0
Plant response rating, Soybean (soybean; [4]): 0
Soybean plant response rating (soybean; [9]): 0
Soybean plant response rating (soybean; [6]): 0
Soybean plant response rating (soybean; [8]): 3
Plant response rating, Corn (corn; [1]): 0
Corn plant response rating (corn; [2]): 0
Plant response rating, Corn (corn; [3]): 0
Plant response rating, Corn (corn; [4]): 0
Corn plant response rating (corn; [9]): 0
Corn plant response rating (corn; [6]): 0
Corn plant response rating (corn; [7]): 0
Corn plant response rating (corn; [8]): 0
Plant response rating, Giant foxtail (giant foxtail; [1]): 0
Giant foxtail plant response rating (giant foxtail; [2]): 0
Plant response rating, Giant foxtail (giant foxtail; [3]): 0
Plant response rating, Giant foxtail (giant foxtail; [4]): 0
Giant foxtail plant response rating (giant foxtail; [9]): 0
Giant foxtail plant response rating (giant foxtail; [6]): 0
Giant foxtail plant response rating (giant foxtail; [7]): 0
Giant foxtail plant response rating (giant foxtail; [8]): 0
Plant response rating, Velvetleaf (velvetleaf; [1]): 0
Velvetleaf plant response rating (velvetleaf; [2]): 0
Plant response rating, Velvetleaf (velvetleaf; [3]): 0
Plant response rating, Velvetleaf (velvetleaf; [4]): 0
Velvetleaf plant response rating (velvetleaf; [9]): 0
Velvetleaf plant response rating (velvetleaf; [6]): 0
Velvetleaf plant response rating (velvetleaf; [8]): 0
Ducksalad plant response rating (duck salad; [13]): 0
Ducksalad plant response rating (duck salad; [14]): 0
Ducksalad plant response rating (duck salad; [15]): 0
Plant response rating, Ducksalad (duck salad; [12]): 0
Rice plant response rating (rice; [10]): 0
Rice plant response rating (rice; [11]): 0
Plant response rating, Rice (rice; [12]): 0
Plant response rating, Nutsedge (purple nutsedge; [1]): 0
Nutsedge plant response rating (purple nutsedge; [2]): 0
Plant response rating, Nutsedge (purple nutsedge; [3]): 0
Plant response rating, Nutsedge (purple nutsedge; [4]): 0
Nutsedge plant response rating (purple nutsedge; [9]): 0
Nutsedge plant response rating (purple nutsedge; [6]): 0
Nutsedge plant response rating (purple nutsedge; [8]): 0
Plant response rating, Rape (rape; [1]): 0
Rape plant response rating (rape; [2]): 0
Plant response rating, Rape (rape; [3]): 0
Plant response rating, Rape (rape; [4]): 0
Rape plant response rating (rape; [9]): 0
Rape plant response rating (rape; [6]): 0
Rape plant response rating (rape; [8]): 0
